PMC3433420 (PLoS ONE, 2012)
Residues, ends and D or L forms follow the SMILES beside them.

Assays:
HSH2D SH2 domain = target: T1, HSH2D SH2 domain (Homo sapiens, UniProt Q96JZ2); assay: FP saturation binding assay
T1 sequence (Q96JZ2 34-125 limits assumed): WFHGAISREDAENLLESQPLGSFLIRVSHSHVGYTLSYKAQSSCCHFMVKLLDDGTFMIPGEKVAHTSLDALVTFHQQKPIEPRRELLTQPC

PTK6 SH2 domain = target: T2, PTK6 SH2 domain (Homo sapiens, UniProt Q13882); assay: FP saturation binding assay; conditions: protein PTK6; FP, high-confidence ErbB interactions; mean of replicate hits
T2 construct: from the PTK6 SH2 domain; 6X His; thioredoxin; made in house; host or cells: E. coli BL21(DE3)pLysS
T2 sequence (Q13882 78-170 limits assumed): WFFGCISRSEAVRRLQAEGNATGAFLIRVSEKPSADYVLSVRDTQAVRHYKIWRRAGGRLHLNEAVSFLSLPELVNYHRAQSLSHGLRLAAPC
Method: (See Figure 1A) Rhodamine-labeled peptides were dissolved in assay buffer (20 mM HEPES, 100 mM KCl, 0.1% Tween-20, 5 mM DTT, pH 7.8), diluted to a concentration of 20 nM, and plated into black 384-well plates (Corning, Corning, NY) at 5 µL/well using a Perkin Elmer EP3 pipetting workstation (V&P Scientific, Inc., San Diego, CA). SH2, PTB, and thioredoxin control proteins were plated into the first column of 2 mL 96-well plates (Corning) at a concentration of 20 µM and serially diluted 1∶2 into freezing buffer (300 mM NaCl, 50 mM Na2PO4, pH 8, 20% glycerol v/v) eleven times using a Tecan Freedom EVO 100 workstation (Tecan, Männedorf, Switzerland). For the interaction assay, 5 µL of each of the twelve protein concentrations was added to the peptide-containing 384-well plates via the EP3 resulting in a protein dilution range of 0.002–10 µM and a final volume of 10 µL; peptide concentration was fixed at 10 nM. Peptide/protein samples were incubated for 20 minutes at room temperature in the dark and fluorescence polarization (FP) was measured in an Analyst GT multimode reader (Molecular Devices, Sunnyvale, CA) with excitation and emission wavelengths of 530 nm and 555 nm, respectively. Experimental values were output as millipolarization (mP) units and imported into MATLAB (The MathWorks, Inc., Natick, MA) in which equation (1) was used to determine dissociation constants (KDs) for each protein/peptide pairing by least squares nonlinear regression. [drawing 1] (1)
FP was described by the following equation: P=Iparallel-IperpendicularIparallel+Iperpendicular, where “P” denotes polarization, and “I” denotes the fluorescent intensity relative to the plane of incident light. Experimental values were output as millipolarization (mP) units and imported into MATLAB where the following equation was used to determine dissociation constants (KDs) for each protein/peptide pairing by least squares nonlinear regression:
Pobs=Pmax∙ProteinKD+Protein [picture] (1)
Peptides were initially tested for systematic plate effects across protein dilutions and nonspecific binding to thioredoxin by linear regression analysis and any effects were regressed out. The median baseline control polarization value for each plate was then subtracted from each data point to make each binding curve intersect at zero. Plates with excessive variation in baseline control polarizations on both a global and run-specific manner (Dixon’s Q test, p < 0.05) were excluded from further analysis. Outliers in each binding curve were identified and removed using an iterative procedure as follows. The residuals for each fit were used to calculate a global standard deviation of the residuals (GSDR) for each concentration of SH2 domain over all interactions, and individual data points with residuals < or > two GSDR from the global mean residual were flagged as outliers. The outlier with the largest residual from each interaction was removed and nonlinear regression was again performed. This procedure was repeated if additional outliers were identified for an interaction, discarding the interaction if the number of outliers exceeded three. […] In order to further control our false positive rate against hidden confounding variables producing binding artifacts, we sought to determine whether there was a significant relationship between the strength of an interaction and its technical replication rate at our stringent significance and filtering thresholds. We performed logistic regression on the proportion of successful replicates for each interaction query against KD for all interactions (Figure S15A). […] This is related to the observation that the majority of interactions detected by FP are tight (Figure S15B). With this logit model, we assigned a probability to each peptide-protein interaction in our data by using a binomial proportions test to compare the observed versus the expected replication rate at the particular KD of that interaction (Table S4). […]

SH2 and PTB domains [1] = target: T3, SH2 and PTB domains (Homo sapiens, UniProt P51451); assay: In-house protein microarrays (with or without 5 mM DTT), protein named per line; format: binding; conditions: protein BLK, array fabrication # 39336
T3 construct: thioredoxin; made in house; host or cells: BL21(DE3)pLysS E. coli
T3 sequence (P51451 whole entry, the tested form may be a part): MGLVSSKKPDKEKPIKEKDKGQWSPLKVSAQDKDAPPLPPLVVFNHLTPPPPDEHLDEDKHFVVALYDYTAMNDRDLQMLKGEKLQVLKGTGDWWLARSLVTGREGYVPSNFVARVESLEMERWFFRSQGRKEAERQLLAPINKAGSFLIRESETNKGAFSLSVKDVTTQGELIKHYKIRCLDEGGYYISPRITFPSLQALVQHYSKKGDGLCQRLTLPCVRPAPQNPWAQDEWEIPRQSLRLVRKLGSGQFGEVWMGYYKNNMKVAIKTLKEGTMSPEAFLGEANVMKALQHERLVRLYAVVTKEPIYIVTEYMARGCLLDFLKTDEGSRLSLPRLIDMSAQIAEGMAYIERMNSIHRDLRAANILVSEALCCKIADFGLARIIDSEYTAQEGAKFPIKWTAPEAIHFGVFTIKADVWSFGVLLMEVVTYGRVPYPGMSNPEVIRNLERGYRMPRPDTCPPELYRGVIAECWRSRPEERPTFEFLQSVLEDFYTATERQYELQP
Method: (§1) 300 pL of purified recombinant proteins and a thioredoxin tag control were spotted at a concentration of ∼40 µM in duplicate onto aldehyde-coated microscope slides (Erie Scientific Company, Portsmouth, NH) using a Nano-Plotter (NP) 2.1/E noncontact microarrayer (GeSiM, Munich, Germany). 16 identical microarrays per slide were printed in a 2×8 (column by row) format with distances of 9 mm between individual arrays; each array consisted of a 14×14 configuration of spots 400 µm apart. Following printing at a constant humidity level of 50%, slides were desiccated overnight and stored at −80°C. For peptide probing, array slides were transferred to 96-well microplates (TeleChem International, Inc., Sunnyvale, CA) and sandwiched with silicone gaskets. Prior to peptide addition, aldehyde sites were quenched with buffer B (20 mM HEPES, 100 mM KCl, 0.1% Tween-20, 5 mM DTT, pH 7.8) containing 1% bovine serum albumin (BSA) (w/v) for one hour at room temperature; moderate agitation was applied in a plate shaker (IKA, Germany) to displace glycerol from the surface area of protein sample spots. […] The arrays were subsequently washed once with 300 µL of buffer B and once with 300 µL of ddH2O. Residual water was removed by centrifugation; slides were stored under desiccation in the dark until analysis.
(§2) Microarray slides were scanned at a resolution of 10 µm using a GenePix 4000B microarray scanner and analyzed using GenePix Pro v6.0 software (Molecular Devices, Sunnyvale, CA). To independently visualize protein spots irrespective of peptide binding, samples were printed simultaneously with 400 nM of Cyanine-5 (Cy5) labeled bovine serum albumin (BSA). […] Following spot layout identification via Cy5 labeled BSA, the mean fluorescence intensity of rhodamine for duplicate protein spots was quantified and normalized by subtracting the corresponding mean fluorescence intensity of thioredoxin. Normalized fluorescence values were then imported into MATLAB and KDs determined as previously described.

SH2 and PTB domains [2] = target: T4, SH2 and PTB domains (Homo sapiens, UniProt P43405); assay: as above; format: binding; conditions: protein SYK-NC, array fabrication # 39336
T4 construct: thioredoxin; made in house; host or cells: BL21(DE3)pLysS E. coli
Method: as §1, §2

SH2 and PTB domains [3] = target: T5, SH2 and PTB domains (Homo sapiens, UniProt P42684); assay: as above; format: binding; conditions: protein ABL2, array fabrication # 39336
T5 construct: thioredoxin; made in house; host or cells: BL21(DE3)pLysS E. coli
T5 sequence (P42684 whole entry, the tested form may be a part): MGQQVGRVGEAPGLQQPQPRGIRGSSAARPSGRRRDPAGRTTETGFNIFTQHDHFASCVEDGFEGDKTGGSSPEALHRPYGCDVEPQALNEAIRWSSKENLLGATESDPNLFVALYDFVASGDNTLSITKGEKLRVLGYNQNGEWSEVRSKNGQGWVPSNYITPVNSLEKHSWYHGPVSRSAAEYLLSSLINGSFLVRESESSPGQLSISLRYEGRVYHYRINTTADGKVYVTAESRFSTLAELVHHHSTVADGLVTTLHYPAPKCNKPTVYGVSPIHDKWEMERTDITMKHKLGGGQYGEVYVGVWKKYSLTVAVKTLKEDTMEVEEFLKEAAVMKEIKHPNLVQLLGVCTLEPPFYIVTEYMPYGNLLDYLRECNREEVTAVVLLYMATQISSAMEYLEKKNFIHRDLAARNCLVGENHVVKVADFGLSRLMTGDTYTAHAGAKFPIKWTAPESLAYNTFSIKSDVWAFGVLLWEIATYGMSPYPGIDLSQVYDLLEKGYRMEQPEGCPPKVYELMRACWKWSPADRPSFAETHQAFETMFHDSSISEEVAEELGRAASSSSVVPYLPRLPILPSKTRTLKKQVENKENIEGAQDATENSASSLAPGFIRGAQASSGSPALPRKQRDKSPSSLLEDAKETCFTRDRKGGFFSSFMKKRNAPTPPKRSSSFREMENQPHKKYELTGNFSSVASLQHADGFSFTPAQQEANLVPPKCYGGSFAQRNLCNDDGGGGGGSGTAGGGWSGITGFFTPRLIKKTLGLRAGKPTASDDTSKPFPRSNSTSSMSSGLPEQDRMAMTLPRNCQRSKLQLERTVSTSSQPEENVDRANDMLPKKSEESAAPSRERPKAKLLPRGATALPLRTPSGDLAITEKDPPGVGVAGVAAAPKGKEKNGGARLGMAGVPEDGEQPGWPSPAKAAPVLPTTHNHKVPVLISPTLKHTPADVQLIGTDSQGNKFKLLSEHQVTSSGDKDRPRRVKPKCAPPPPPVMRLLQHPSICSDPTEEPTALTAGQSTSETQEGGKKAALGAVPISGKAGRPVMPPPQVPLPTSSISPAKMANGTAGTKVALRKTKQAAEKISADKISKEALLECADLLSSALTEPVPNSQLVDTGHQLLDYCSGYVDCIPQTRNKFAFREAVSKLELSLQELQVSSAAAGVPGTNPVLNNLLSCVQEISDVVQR
Method: as §1, §2

SH2 and PTB domains [4] = target: T6, SH2 and PTB domains (Homo sapiens, UniProt P16885); assay: as above; format: binding; conditions: protein PLCG2-NC, array fabrication # 39336
T6 construct: thioredoxin; made in house; host or cells: BL21(DE3)pLysS E. coli
T6 sequence (P16885 1-1265): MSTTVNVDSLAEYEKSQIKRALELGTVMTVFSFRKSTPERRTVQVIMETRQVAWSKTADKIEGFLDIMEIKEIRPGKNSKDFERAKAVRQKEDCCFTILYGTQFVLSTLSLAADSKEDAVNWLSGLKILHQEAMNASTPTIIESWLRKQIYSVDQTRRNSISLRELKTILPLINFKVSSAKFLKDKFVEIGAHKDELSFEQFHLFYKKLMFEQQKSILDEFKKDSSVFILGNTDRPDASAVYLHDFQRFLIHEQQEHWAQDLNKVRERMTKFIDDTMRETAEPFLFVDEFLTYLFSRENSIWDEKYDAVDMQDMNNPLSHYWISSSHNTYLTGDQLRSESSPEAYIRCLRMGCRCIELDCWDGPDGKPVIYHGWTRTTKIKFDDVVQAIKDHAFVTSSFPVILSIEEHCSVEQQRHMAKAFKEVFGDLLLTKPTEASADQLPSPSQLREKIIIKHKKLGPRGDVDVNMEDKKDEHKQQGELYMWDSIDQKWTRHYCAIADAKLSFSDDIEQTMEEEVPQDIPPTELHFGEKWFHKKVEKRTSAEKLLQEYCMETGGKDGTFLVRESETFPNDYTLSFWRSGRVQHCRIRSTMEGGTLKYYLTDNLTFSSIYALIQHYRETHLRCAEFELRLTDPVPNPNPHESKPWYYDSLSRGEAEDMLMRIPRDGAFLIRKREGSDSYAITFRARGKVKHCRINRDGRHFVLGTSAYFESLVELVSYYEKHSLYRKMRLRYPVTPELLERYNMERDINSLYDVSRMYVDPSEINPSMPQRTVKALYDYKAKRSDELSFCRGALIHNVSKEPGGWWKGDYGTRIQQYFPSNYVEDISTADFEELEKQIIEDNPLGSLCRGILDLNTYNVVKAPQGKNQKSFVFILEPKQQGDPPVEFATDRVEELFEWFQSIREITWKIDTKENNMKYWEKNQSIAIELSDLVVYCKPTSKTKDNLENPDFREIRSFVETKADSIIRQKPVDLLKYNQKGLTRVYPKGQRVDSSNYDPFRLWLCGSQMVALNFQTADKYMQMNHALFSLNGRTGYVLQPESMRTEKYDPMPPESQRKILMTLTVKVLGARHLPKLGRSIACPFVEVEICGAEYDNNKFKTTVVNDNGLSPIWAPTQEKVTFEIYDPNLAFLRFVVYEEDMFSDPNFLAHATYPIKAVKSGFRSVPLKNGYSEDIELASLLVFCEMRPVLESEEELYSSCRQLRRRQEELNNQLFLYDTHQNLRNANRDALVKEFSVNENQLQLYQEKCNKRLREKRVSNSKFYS
Method: as §1, §2

SH2 and PTB domains [5] = target: T7, SH2 and PTB domains (Homo sapiens, UniProt P78314); assay: as above; format: binding; conditions: protein SH3BP2, array fabrication # 39336
T7 construct: thioredoxin; made in house; host or cells: BL21(DE3)pLysS E. coli
T7 sequence (P78314 1-561): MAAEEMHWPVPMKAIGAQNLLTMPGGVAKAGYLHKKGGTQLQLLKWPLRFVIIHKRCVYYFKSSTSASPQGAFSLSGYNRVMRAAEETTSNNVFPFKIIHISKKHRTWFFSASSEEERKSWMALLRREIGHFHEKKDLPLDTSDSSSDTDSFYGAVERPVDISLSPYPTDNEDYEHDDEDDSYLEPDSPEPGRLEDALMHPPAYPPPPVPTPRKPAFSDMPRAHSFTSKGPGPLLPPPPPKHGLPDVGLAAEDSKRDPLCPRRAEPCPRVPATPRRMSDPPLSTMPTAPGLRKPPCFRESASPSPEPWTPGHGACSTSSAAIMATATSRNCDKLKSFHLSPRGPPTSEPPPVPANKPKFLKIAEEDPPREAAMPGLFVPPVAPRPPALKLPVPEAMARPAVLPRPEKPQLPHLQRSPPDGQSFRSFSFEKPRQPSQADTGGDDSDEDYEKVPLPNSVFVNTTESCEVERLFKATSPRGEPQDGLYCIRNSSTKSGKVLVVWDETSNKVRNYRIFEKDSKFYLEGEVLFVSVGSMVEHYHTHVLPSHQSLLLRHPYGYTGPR
Method: as §1, §2

SH2 and PTB domains [6] = target: T8, SH2 and PTB domains (Homo sapiens, UniProt P07947); assay: as above; format: binding; conditions: protein YES1, array fabrication # 39336
T8 construct: thioredoxin; made in house; host or cells: BL21(DE3)pLysS E. coli
T8 sequence (P07947 whole entry, the tested form may be a part): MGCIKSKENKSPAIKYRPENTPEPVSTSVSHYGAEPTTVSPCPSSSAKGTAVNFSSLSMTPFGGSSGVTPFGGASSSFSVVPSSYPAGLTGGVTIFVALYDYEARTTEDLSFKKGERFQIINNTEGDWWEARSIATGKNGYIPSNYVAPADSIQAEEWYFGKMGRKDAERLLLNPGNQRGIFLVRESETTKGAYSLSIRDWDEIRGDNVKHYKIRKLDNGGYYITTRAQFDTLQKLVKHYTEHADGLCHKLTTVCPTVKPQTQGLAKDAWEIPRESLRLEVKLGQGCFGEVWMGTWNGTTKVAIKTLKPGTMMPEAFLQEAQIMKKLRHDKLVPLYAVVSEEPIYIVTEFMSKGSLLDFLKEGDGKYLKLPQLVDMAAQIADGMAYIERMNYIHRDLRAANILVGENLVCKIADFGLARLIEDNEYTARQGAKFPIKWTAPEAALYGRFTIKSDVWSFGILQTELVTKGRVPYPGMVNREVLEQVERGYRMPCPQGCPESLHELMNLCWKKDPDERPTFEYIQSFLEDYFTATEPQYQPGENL
Method: as §1, §2

SMILES: C[C@H](NC(=O)[C@H](CC(N)=O)NC(=O)[C@H](Cc1c[nH]cn1)NC(=O)[C@H](Cc1ccc(OP(=O)(O)O)cc1)NC(=O)[C@H](CCC(=O)O)NC(=O)[C@@H]1CCCN1C(=O)[C@H](CC(N)=O)NC(=O)[C@@H](N)CC(=O)O)C(=O)N[C@@H](CO)C(=O)N[C@@H](CC(N)=O)C(=O)NCC(=O)N1CCC[C@H]1C(=O)N[C@@H](CC(=O)O)C(=O)O [ErbB4 1188 13-mer] (HELM PEPTIDE1{D.N.P.E.[O=C([C@H](Cc1ccc(OP(=O)(O)O)cc1)N[*:1])[*:2]].H.N.A.S.N.G.P.D}$$$$V2.0)
- Kd (HSH2D SH2 domain): 3050 nM
- Kd (PTK6 SH2 domain): 9420 nM

SMILES: CC(C)C[C@H](NC(=O)[C@@H](NC(=O)[C@@H](NC(=O)CNC(=O)[C@@H]1CCCN1)[C@@H](C)O)C(C)C)C(=O)N1CCC[C@H]1C(=O)N1CCC[C@H]1C(=O)N1CCC[C@H]1C(=O)N1CCC[C@H]1C(=O)N[C@@H](Cc1ccc(OP(=O)(O)O)cc1)C(=O)N[C@@H](CCCNC(=N)N)C(=O)N[C@@H](Cc1c[nH]cn1)C(=O)N[C@@H](CCCNC(=N)N)C(=O)N[C@@H](CC(N)=O)C(=O)N[C@H](C(=O)N[C@H](C(=O)N[C@H](C(=O)N[C@@H](CC(=O)O)C(=O)O)C(C)C)C(C)C)[C@@H](C)O [ErbB4 pY1301 (18-mer)] (HELM PEPTIDE1{P.G.T.V.L.P.P.P.P.[O=C([C@H](Cc1ccc(OP(=O)(O)O)cc1)N[*:1])[*:2]].R.H.R.N.T.V.V.D}$$$$V2.0)
- Kd (SH2 and PTB domains [1]; PM assay replicate # 39341): 1180 nM
- Kd (SH2 and PTB domains [1]; PM assay replicate # 39342): 1600 nM
- Kd (SH2 and PTB domains [2]; PM assay replicate # 39341): 800 nM
- Kd (SH2 and PTB domains [2]; PM assay replicate # 39342): 1170 nM
- Kd (SH2 and PTB domains [3]; PM assay replicate # 39341): 1030 nM
- Kd (SH2 and PTB domains [3]; PM assay replicate # 39342): 0.68 nM
- Kd (SH2 and PTB domains [4]; PM assay replicate # 39341): 810 nM
- Kd (SH2 and PTB domains [4]; PM assay replicate # 39342): 8370 nM
- Kd (SH2 and PTB domains [5]; PM assay replicate # 39341): 1180 nM
- Kd (SH2 and PTB domains [5]; PM assay replicate # 39342): 1610 nM
- Kd (SH2 and PTB domains [6]; PM assay replicate # 39341): 1370 nM
- Kd (SH2 and PTB domains [6]; PM assay replicate # 39342): 4860 nM
